According to ChEMBL document CHEMBL1201862, “PubChem BioAssay data set” (2004):
The source made the active and inactive calls.

Columns and labels:
Bcl-2-like protein 10 = Bcl-2-like protein 10 (Homo sapiens, UniProt Q9HD36); test: displacers of TR3 peptide from Bcl-B, primary screen, selectivity assay for Bfl-1 inhibitor project, biochemical, fluorescence polarization, FITC-TR3 peptide (AID 748);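 further: fluorescence polarization from a fluorescein-labelled TR3 peptide binding purified Bcl-B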
[1] = molecular target: T1, Corticotropin-releasing factor receptor 2/Corticotropin-releasing factor-binding protein (Homo sapiens, UniProt P24387+Q13324); test: activators of CRF receptor 2 with binding protein – uHTS hits, confirmation (AID 602473); type: functional; details: read-out: EC50_Mean
T1 sequence (Q13324 whole entry): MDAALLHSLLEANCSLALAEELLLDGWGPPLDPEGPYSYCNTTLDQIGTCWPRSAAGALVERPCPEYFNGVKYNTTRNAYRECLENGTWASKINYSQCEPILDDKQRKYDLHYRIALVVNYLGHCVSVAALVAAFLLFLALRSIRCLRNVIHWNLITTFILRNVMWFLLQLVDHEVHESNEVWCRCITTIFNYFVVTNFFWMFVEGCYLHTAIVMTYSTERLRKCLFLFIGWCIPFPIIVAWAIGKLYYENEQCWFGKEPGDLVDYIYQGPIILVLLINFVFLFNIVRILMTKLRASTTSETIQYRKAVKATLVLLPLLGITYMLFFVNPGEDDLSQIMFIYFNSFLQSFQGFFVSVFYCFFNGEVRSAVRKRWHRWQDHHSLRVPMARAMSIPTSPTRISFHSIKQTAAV
T1 sequence (P24387 whole entry): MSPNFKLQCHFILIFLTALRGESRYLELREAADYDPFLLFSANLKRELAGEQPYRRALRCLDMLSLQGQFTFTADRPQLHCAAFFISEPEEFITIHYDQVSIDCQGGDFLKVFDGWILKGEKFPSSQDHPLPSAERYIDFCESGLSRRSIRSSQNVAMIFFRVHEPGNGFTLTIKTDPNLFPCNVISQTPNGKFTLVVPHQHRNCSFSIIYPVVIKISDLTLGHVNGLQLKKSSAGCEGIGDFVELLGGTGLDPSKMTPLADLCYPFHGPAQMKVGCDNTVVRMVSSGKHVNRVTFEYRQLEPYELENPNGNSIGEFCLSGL

[2] = molecular target: Female germline-specific tumor suppressor gld-1 (Caenorhabditis elegans, UniProt Q17339); test: inhibitors of GLD-1 binding to TGE RNA, dose response, biochemical, fluorescence polarization, C. elegans (AID 2802);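 further: fluorescence polarization of labeled TGE RNA bound by purified gld-1 protein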
Sequence of Female germline-specific tumor suppressor gld-1 (Q17339 whole entry): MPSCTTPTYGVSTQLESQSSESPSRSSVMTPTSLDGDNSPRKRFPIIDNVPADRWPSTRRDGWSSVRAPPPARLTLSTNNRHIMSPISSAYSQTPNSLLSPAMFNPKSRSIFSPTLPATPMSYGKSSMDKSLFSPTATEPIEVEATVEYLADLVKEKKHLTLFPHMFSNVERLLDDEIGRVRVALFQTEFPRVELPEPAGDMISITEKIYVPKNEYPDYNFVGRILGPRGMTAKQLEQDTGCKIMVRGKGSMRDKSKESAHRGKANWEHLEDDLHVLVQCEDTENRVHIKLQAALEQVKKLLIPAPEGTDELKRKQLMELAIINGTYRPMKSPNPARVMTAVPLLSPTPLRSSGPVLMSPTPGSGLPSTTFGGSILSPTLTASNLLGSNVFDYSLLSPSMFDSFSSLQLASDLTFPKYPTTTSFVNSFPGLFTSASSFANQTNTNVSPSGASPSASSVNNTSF

Protein Rev = Protein Rev (Human immunodeficiency virus type 1 group M subtype B (isolate HXB2)(HIV-1), UniProt P04618); test: inhibitors of Rev binding to RRE RNA, dose response, biochemical, fluorescence polarization, HIV-1 (AID 434976); design: species or system Human immunodeficiency virus 1
Sequence of Protein Rev (P04618 whole entry): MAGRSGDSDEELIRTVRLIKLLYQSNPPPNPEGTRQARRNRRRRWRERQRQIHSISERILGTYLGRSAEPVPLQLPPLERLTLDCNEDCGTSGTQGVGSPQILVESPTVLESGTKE

Genome polyprotein = Genome polyprotein (dengue virus type 2, UniProt P29990); test: Dengue-2 NS5 methyltransferase inhibitors, primary screen, biochemical, confirmation dose response (AID 588689); type: functional
Sequence of Genome polyprotein (P29990 2492-3391 limits assumed): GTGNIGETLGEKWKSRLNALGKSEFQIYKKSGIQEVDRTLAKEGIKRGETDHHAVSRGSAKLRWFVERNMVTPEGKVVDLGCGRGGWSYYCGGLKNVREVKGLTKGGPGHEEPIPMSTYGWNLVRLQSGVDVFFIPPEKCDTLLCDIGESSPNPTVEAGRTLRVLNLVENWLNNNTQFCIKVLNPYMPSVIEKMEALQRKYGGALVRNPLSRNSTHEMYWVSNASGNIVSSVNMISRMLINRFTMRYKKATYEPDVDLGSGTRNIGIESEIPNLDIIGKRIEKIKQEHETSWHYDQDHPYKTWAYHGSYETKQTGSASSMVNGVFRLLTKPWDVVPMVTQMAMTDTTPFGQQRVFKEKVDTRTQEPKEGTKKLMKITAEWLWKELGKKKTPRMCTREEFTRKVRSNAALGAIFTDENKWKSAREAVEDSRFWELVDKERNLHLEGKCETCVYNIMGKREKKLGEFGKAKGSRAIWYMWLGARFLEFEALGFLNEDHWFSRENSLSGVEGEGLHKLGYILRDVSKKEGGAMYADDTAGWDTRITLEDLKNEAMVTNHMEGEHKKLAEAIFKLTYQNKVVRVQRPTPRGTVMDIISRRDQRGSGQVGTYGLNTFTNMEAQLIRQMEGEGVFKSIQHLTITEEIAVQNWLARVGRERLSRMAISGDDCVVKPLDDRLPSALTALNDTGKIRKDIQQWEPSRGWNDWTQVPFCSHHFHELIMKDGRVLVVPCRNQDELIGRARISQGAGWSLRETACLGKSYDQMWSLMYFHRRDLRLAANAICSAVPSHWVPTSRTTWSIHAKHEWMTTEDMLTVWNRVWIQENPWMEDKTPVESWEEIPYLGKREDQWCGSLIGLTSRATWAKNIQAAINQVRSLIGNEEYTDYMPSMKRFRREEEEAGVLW

[3] = molecular target: Intestinal-type alkaline phosphatase (Homo sapiens, UniProt P09923); test: Dose Response confirmation of uHTS hits from a small molecule inhibitors of human intestinal alkaline phosphatase via a luminescent assay. [Related pubchem assays (depositor defined):AID2544, AID2574]; type: functional
Sequence of Intestinal-type alkaline phosphatase (P09923 whole entry, the tested form may be a part): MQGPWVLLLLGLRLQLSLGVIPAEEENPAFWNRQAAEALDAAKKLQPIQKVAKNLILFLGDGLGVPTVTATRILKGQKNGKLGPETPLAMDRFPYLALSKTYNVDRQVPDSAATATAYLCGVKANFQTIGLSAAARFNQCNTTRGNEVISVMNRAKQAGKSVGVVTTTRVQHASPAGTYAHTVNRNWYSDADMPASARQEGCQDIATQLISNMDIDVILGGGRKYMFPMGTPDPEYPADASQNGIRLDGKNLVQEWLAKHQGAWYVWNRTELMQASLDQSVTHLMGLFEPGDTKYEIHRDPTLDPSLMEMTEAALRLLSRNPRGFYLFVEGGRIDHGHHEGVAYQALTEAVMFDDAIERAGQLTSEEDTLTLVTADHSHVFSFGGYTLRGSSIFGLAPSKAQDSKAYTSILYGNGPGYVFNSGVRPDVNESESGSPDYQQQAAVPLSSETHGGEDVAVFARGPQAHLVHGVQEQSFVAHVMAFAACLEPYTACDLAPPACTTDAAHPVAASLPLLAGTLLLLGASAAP

[4] = molecular target: NACHT, LRR and PYD domains-containing protein 3 (Homo sapiens, UniProt Q96P20); test: NALP3 inhibitors in yeast, dose response, luminescent (AID 488799); type: functional
Sequence of NACHT, LRR and PYD domains-containing protein 3 (Q96P20 whole entry, the tested form may be a part): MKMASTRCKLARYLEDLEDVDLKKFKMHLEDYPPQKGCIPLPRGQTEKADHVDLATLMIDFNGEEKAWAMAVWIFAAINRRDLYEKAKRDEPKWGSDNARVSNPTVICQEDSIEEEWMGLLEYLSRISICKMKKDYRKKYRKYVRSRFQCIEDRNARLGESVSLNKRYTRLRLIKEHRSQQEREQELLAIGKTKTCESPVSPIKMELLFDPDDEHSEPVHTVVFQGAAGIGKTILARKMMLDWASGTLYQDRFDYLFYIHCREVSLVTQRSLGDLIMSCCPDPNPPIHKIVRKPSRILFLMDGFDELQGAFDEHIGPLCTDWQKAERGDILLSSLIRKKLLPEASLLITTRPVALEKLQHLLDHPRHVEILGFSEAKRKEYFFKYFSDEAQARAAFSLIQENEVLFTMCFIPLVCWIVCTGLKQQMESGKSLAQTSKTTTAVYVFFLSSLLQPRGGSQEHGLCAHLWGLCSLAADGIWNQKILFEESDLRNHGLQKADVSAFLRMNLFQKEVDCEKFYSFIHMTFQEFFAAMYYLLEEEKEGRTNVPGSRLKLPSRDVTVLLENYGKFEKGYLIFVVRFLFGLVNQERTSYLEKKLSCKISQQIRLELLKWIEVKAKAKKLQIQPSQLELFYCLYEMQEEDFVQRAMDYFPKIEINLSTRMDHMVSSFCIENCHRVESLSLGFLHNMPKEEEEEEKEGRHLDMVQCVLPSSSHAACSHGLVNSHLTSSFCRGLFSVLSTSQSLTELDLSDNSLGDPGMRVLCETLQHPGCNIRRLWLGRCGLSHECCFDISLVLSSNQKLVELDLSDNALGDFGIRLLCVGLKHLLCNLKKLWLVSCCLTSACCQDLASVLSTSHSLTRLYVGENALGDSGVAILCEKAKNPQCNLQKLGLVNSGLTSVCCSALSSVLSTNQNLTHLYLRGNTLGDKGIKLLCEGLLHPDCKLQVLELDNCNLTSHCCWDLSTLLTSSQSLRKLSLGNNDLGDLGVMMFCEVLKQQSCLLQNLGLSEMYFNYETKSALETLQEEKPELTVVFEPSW

INS1 = test: beta cell apoptosis inhibitors, cytokine rescue, dose response, luminescence, retest (AID 449756); type: functional, cell-based; details: Rattus norvegicus;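 further: cell death triggered by IL-1 beta plus TNF-alpha plus IFN-gamma mixture; protective hits raise ATP signal compared with cytokine alone wells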
cells = type: functional, cell-based; details: HEK-CNG
[5] = cytotoxicity in HEK-293T cells, dose response, cytotoxicity control for BCR NF-kB inhibitor project, luminescence, B-cell screen hits (AID 489021); type: functional, cell-based;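 further: HEK-293T cells carrying an NF-kB luciferase reporter; cells exposed to compound for about 14 hours before viability readout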
Galanin receptor type 3 = molecular target: T2, Galanin receptor type 3 (Homo sapiens, UniProt O60755); test: Fluorescence-based cell-based primary high throughput dose response assay to identify antagonists of the Galanin Receptor 3 (GalR3).; type: functional
T2 sequence (O60755 whole entry): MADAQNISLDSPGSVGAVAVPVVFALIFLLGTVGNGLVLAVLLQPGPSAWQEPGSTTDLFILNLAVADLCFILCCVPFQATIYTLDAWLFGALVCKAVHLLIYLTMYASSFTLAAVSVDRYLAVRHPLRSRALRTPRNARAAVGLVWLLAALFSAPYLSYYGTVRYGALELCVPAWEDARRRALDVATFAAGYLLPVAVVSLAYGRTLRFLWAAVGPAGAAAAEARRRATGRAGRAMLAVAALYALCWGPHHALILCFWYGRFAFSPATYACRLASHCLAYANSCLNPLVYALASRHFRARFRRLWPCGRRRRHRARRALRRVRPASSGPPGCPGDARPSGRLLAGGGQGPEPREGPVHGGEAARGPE

Galanin receptor type 2 = Galanin receptor type 2 (Homo sapiens, UniProt O43603); test: Dose Response cell-based high-throughput screening assay to identify antagonists of galanin receptor 2 (GALR2). [Related pubchem assays: 828, 866 ]; type: functional
Sequence of Galanin receptor type 2 (O43603 whole entry): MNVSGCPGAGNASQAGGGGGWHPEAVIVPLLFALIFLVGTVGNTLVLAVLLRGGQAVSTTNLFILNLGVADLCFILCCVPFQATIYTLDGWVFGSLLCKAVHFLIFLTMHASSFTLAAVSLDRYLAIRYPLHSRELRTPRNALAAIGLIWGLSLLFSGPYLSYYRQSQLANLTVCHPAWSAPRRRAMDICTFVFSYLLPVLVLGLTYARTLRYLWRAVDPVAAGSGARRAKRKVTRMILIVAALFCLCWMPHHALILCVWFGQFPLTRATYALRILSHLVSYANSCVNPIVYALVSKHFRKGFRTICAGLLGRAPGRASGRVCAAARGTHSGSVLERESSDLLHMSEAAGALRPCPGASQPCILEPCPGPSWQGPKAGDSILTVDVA

[6] = molecular target: Protein phosphatase methylesterase 1 (Homo sapiens, UniProt Q9Y570); test: PME-1 inhibitor potency by in-gel ABPP, dose response, selectivity assay for PME-1 inhibitor project, cell lysate, mouse brain cytosol, FP-rhodamine, panel member PME-1 Assay Panel member description: Inhibition of endogenously expressed PME-1 (AID 2366)
Sequence of Protein phosphatase methylesterase 1 (Q9Y570 whole entry): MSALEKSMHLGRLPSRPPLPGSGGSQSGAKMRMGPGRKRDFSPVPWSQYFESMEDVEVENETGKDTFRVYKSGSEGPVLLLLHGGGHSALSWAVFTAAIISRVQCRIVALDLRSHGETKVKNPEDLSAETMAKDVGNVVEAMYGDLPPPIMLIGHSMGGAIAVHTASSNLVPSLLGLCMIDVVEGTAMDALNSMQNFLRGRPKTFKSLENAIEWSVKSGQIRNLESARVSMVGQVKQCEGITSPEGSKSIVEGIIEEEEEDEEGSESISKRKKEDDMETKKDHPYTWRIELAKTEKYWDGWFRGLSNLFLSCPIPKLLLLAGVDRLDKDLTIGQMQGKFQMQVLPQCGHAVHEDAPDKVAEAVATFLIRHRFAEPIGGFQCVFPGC

Sequence of Bcl-2-like protein 10 (Q9HD36 whole entry): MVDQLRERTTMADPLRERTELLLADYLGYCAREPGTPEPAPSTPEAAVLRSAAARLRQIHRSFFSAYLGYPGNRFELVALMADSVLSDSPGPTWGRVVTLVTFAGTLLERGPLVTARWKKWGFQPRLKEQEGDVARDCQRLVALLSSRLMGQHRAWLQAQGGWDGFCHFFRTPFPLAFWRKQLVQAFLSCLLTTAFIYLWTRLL

With `c1ccc(-c2nn3c(Cn4nnc5ccccc54)nnc3s2)nc1` the IC50 (Bcl-2-like protein 10) was 34.6 µM (active).

With `COc1ccc2nc(N3CCC(O)CC3)c(C#N)cc2c1` the EC50 [1] was > 53 µM (inactive), the IC50 [2] was 24.9 µM (inactive) and the IC50 (Protein Rev) was 67.6 µM (not active). The IC50 (Genome polyprotein) was 59.2 µM (active) and the IC50 [3] was > 100 µM (inactive).

In the case of `O=C(Nc1scc(-c2ccccc2)c1C(=O)O)c1ccc(F)cc1`, the IC50 [4] was 10.3 µM (active).

For `O=S(=O)(NCc1ccncc1)c1ccc(Br)s1`, the AC50 (INS1) was 2.91 µM (active), the EC50 (cells) was > 29.9 µM (inactive) and the IC50 [5] was > 80 µM (inactive). For the same molecule, the IC50 (Galanin receptor type 3) was 2.06 µM (active) and the IC50 (Galanin receptor type 2) was > 42 µM (not active).

With `Cc1noc(C)c1S(=O)(=O)n1cccc1/C=C(\C#N)S(C)(=O)=O` the IC50 [6] was > 20 µM (inactive).
